Earlier results on 1 compound are cited in patent US20260345798A1, “COMPOUNDS AND METHODS OF USE THEREOF” (Virginia Commonwealth University, priority 2023, published 2026).

SMILES strings stand for the structures.

The subject of data set [1] is cancer invasion. The note with it: in vitro and in vivo, multiple experimental animal models; cited from earlier work.
The test system of data set [2] is non-transformed normal or transformed cells. The note with it: other cancer contexts; cited from earlier work.
For data set [3], the target named is T1, MDA-9/Syntenin (Homo sapiens, UniProt O00560).
T1 sequence (O00560 1-298): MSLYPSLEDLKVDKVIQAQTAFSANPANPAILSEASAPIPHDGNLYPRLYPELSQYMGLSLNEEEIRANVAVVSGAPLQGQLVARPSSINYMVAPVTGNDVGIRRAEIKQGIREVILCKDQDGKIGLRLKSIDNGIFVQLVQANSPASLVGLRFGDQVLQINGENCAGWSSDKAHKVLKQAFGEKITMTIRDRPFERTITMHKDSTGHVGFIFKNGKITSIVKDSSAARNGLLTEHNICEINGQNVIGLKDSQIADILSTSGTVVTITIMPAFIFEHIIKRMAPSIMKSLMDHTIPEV
The note with it: literature comparison; cited from earlier work.

In data set [4] the test system is second PDZ2 domain of MDA-9/Syntenin. The note with it: cited from earlier work.
Data set [5] deals with T cells. The note with it: cited from earlier work.
Data set [6] concerns PDZ domains in other sequence-similar proteins. The note with it: cited from earlier work.

For the compound `Cc1cc(NC(=O)c2nc3nc4c(c(=O)n3[nH]2)CCC4)c(C)cc1NC(=O)CCc1nnc(-c2ccccc2)o1` [PDZ1i], in data set [1], the “blocking of cancer invasion” value is recorded as “effectively blocks cancer invasion”. The “detrimental effect on cells” value in data set [2] is “not detrimental”. Besides, the Kd in data set [3] was 23 µM. Besides, the “binding to PDZ2 domain of MDA-9/Syntenin” value in data set [4] is given as “without appreciable binding”. In addition, in data set [5], the “T cell infiltration into the tumor environment” value is on record as “causes T cell infiltration into the tumor environment”. Moreover, in data set [6], the “binding to PDZ domains in other sequence-similar proteins” value is on record as “without appreciable binding”.
